Reference: US5856341A, “Benzo [B] indeno [2,1-D] thiophene compounds, intermediates, processes, compositions and methods” (Eli Lilly and Company, priority 1997, dated 1999)

Columns and labels:
Eosinophil peroxidase = experiment: Uterine Eosinophil Peroxidase (EPO) Assay in ovariectomized rats; format: in vivo, Sprague Dawley rats; details: for Uterine Eosinophil peroxidase, Vmax: daily for 4 days, OVX rats
Experimental: (§1) In the examples illustrating the methods, a postmenopausal model was used in which effects of different treatments upon circulating lipids were determined.
(§2) Seventy-five day old female Sprague Dawley rats (weight range of 200 to 225 g) were obtained from Charles River Laboratories (Portage, Mich.). The animals were either bilaterally ovariectomized (OVX) or exposed to a Sham surgical procedure at Charles River Laboratories, and then shipped after one week. Upon arrival, they were housed in metal hanging cages in groups of 3 or 4 per cage and had ad libitum access to food (calcium content approximately 0.5%) and water for one week. Room temperature was maintained at 22.2°±1.7° C. with a minimum relative humidity of 40%. The photoperiod in the room was 12 hours light and 12 hours dark.
(§3) Dosing Regimen Tissue Collection. After a one week acclimation period (therefore, two weeks post-OVX) daily dosing with test compound was initiated. 17α-ethynyl estradiol or the test compound were given orally, unless otherwise stated, as a suspension in 1% carboxymethylcellulose or dissolved in 20% cyclodextrin. Animals were dosed daily for 4 days. Following the dosing regimen, animals were weighed and anesthetized with a ketamine: xylazine (2:1, V:V) mixture and a blood sample was collected by cardiac puncture. The animals were then sacrificed by asphyxiation with CO2, the uterus was removed through a midline incision, and a wet uterine weight was determined.
Uterine Eosinophil Peroxidase (EPO) Assay. Uteri were kept at 4° C. until time of enzymatic analysis. The uteri were then homogenized in 50 volumes of 50 mM Tris buffer (pH-8.0) containing 0.005% Triton X-100. Upon addition of 0.01% hydrogen peroxide and 10 mM O-phenylenediamine (final concentrations) in Tris buffer, increase in absorbance was monitored for one minute at 450 nm. The presence of eosonophils in the uterus is an indication of estrogenic activity of a compound. The maximal velocity of a 15 second interval was determined over the initial, linear portion of the reaction curve.
(§4) Source of Compound: 17α-ethynyl estradiol was obtained from Sigma Chemical Co., St. Louis, Mo.
As is expressed in the data below, estrogenicity also was assessed by evaluating the adverse response of eosinophil infiltration into the uterus.
(§5) The data presented in Table 1 below reflects the response of 5 to 6 rats per treatment.

uterus = experiment: Uterine weight in ovariectomized rats, 4 days daily oral dosing (postmenopausal model); format: in vivo, Sprague Dawley rats; details: for Uterine Weight % Increase verses ovariectomized controls: daily for 4 days, OVX rats
Experimental: as §1, §2, §3, §4
(§6) Data presented in Table 1 below show comparative results among ovariectomized rats, rats treated with 17α-ethynyl estradiol (EE2; an orally available form of estrogen), and rats treated with certain compounds of the instant invention. […] This uterine response to estrogen is well recognized in the art.
as §5

serum cholesterol = experiment: Serum cholesterol in ovariectomized rats (Cholesterol Analysis); format: in vivo, Sprague Dawley rats; details: for Serum Cholest. % Decrease verses ovariectomized controls: daily for 4 days, OVX rats
Experimental: as §1, §2, §3
Cholesterol Analysis. Blood samples were allowed to clot at room temperature for 2 hours, and serum was obtained following centrifugation for 10 minutes at 3000 rpm. Serum cholesterol was determined using a Boehringer Mannheim Diagnostics high performance cholesterol assay. Briefly the cholesterol was oxidized to cholest-4-en-3-one and hydrogen peroxide. The hydrogen peroxide was then reacted with phenol and 4-aminophenazone in the presence of peroxidase to produce a p-quinone imine dye, which was read spectrophotemetrically at 500 nm. Cholesterol concentration was then calculated against a standard curve.
as §4, §6, §5

femur = experiment: Osteoporosis Test Procedure: bone protection in ovariectomized rats, 35 days oral; format: in vivo; details: for Femur BMD % protection / Femur. % Protection (x-ray image): 35 days, relative to ovariectomy
Experimental: Following the General Preparation Procedure, infra, the rats are treated daily for 35 days (6 rats per treatment group) and sacrificed by carbon dioxide asphyxiation on the 36th day. The 35 day time period is sufficient to allow maximal reduction in bone density, measured as described herein. At the time of sacrifice, the uteri are removed, dissected free of extraneous tissue, and the fluid contents are expelled before determination of wet weight in order to confirm estrogen deficiency associated with complete ovariectomy. […] The uteri are then placed in 10% neutral buffered formalin to allow for subsequent histological analysis. The right femurs are excised and digitilized x-rays generated and analyzed by an image analysis program (NIH image) at the distal metaphysis. The proximal aspect of the tibiae from these animals are also scanned by quantitative computed tomography. In accordance with the above procedures, compounds of the instant invention and ethynyl estradiol (EE2) in 20% hydroxypropyl β-cyclodextrin are orally administered to test animals. Distal femur metaphysis and proximal tibiae data are the results of formula I compound treatments compared to intact and ovariectomized test animals. Results are reported as percent protection relative to ovariectomy in Table 2 below.

[1] = system: MCF-7 breast adenocarcinoma cells; experiment: MCF-7 Proliferation Assay (tritiated thymidine incorporation); format: cell-based; details: Homo sapiens, MCF7; 48 hours with drug, then tritiated thymidine 4 hours; read-out: ED50 (MCF-7 proliferation)
Experimental: MCF-7 breast adenocarcinoma cells (ATCC HTB 22) were maintained in MEM (minimal essential medium, phenol red-free, Sigma, St. Louis, Mo.) supplimented with 10% fetal bovine serum (FBS) (V/V), L-glutamine (2 mM), sodium pyruvate (1 mM), HEPES {(N-[2-hydroxyethyl]piperazine-N'-[2-ethanesulfonic acid]10 mM}, non-essential amino acids and bovine insulin (1 μg/mL) (maintenance medium). Ten days prior to assay, MCF-7 cells were switched to maintenance medium supplemented with 10% dextran coated charcoal stripped fetal bovine serum (DCC-FBS) assay medium) in place of 10% FBS to deplete internal stores of steroids. MCF-7 cells were removed from maintenance flasks using cell dissociation medium (Ca^++ /Mg^++ free HBSS (phenol red-free) supplemented with 10 mM HEPES and 2 mM EDTA). Cells were washed twice with assay medium and adjusted to 80,000 cells/mL. Approximately […] (8,000 cells) were added to flat-bottom microculture wells (Costar 3596) and incubated at 37° C. in a 5% CO2 humidified incubator for 48 hours to allow for cell adherence and equilibration after transfer. Serial dilutions of drugs or DMSO as a diluent control were prepared in assay medium and […] to triplicate microcultures followed by […] assay medium for a final volume of […]. After an additional 48 hours at 37° C. in a 5% CO2 humidified incubator, microcultures were pulsed with tritiated thymidine (1 uCi/well) for 4 hours. Cultures were terminated by freezing at -70° C. for 24 hours followed by thawing and harvesting of microcultures using a Skatron Semiautomatic Cell Harvester. Samples were counted by liquid scintillation using a Wallace BetaPlace β counter. Results in Table 3 below show the ED50 (nM) for certain compounds of the instant invention: […]

| SMILES | IC50 [1] [nM] | Uterine Eosinophil peroxidase, Vmax (Eosinophil peroxidase; 0.1 mg/kg PO) | Uterine Weight % Increase verses ovariectomized controls (uterus; 0.1 mg/kg PO) [%] | Serum Cholest. % Decrease verses ovariectomized controls (serum cholesterol; 0.1 mg/kg PO) [%] | Uterine Eosinophil peroxidase, Vmax (Eosinophil peroxidase; 1 mg/kg PO) | Uterine Eosinophil peroxidase, Vmax (Eosinophil peroxidase; 10 mg/kg PO) | Uterine Weight % Increase verses ovariectomized controls (uterus; 1 mg/kg PO) [%] | Uterine Weight % Increase verses ovariectomized controls (uterus; 10 mg/kg PO) [%] | Serum Cholest. % Decrease verses ovariectomized controls (serum cholesterol; 1 mg/kg PO) [%] | Serum Cholest. % Decrease verses ovariectomized controls (serum cholesterol; 10 mg/kg PO) [%] | other results |
| --- | --- | --- | --- | --- | --- | --- | --- | --- | --- | --- | --- |
| C#C[C@]1(O)CC[C@H]2[C@@H]3CCc4cc(O)ccc4[C@H]3CC[C@@]21C [EE2, 17α-ethynyl estradiol, reference compound] | – | 144.0 | 169.5 | 90.5 | – | – | – | – | – | – | eosinophil infiltration into the uterus, in words (Eosinophil peroxidase; stromal layer of ovariectomized rats): substantial, expected increase in eosinophil infiltration; uterine weight, in words (uterus; oral, compared to ovariectomized animals): uterine weight was substantially greater than the uterine weight of ovariectomized test animals; serum cholesterol, in words (serum cholesterol; oral, compared to ovariectomized control animals): caused a decrease in serum cholesterol when orally administered at 0.1 mg/kg/day; Femur BMD % protection (femur; 0.1 mg/kg oral): 76.3%; Femur. % Protection (x-ray image) (femur; 0.1 mg/kg oral): 99.1%; prevention of bone loss, in words (femur; oral, OVX rats, femur density): prevents this loss |
| COc1ccc2c(c1)C(O)(c1ccc(OCCN3CCCCC3)cc1)c1c-2sc2cc(OC)ccc12 (stereo not drawn) [Example 3B, 10-[4-[2-(1-Piperidinyl)ethoxy]phenyl]-2,7-dimethoxy benzo[b]indeno[2,1-d]thiophen-10-ol] | – | 36.0 | 50.4 | 43.5 | 36.6 | 19.2 | 43.0 | 28.2 | 62.5 | 69.2 | – |
| COc1ccc2c3c(sc2c1)-c1ccccc1C3c1ccc(OCCN2CCCCC2)cc1 (stereo not drawn) [Example 5A, 10-[4-[2-(1-Piperidinyl)ethoxy]phenyl]-7-methoxy benzo[b]indeno[2,1-d]thiophene] | – | 6.4 | 33.8 | 59.1 | 35.4 | 31.8 | 63.5 | 92.9 | 74.4 | 60.3 | – |

Continued, in another order:

| IC50 [1] [nM] | SMILES | Uterine Eosinophil peroxidase, Vmax (Eosinophil peroxidase; 0.1 mg/kg PO) | Uterine Weight % Increase verses ovariectomized controls (uterus; 0.1 mg/kg PO) [%] | Serum Cholest. % Decrease verses ovariectomized controls (serum cholesterol; 0.1 mg/kg PO) [%] | Uterine Eosinophil peroxidase, Vmax (Eosinophil peroxidase; 1 mg/kg PO) | Uterine Eosinophil peroxidase, Vmax (Eosinophil peroxidase; 10 mg/kg PO) | Uterine Weight % Increase verses ovariectomized controls (uterus; 1 mg/kg PO) [%] | Uterine Weight % Increase verses ovariectomized controls (uterus; 10 mg/kg PO) [%] | Serum Cholest. % Decrease verses ovariectomized controls (serum cholesterol; 1 mg/kg PO) [%] | Serum Cholest. % Decrease verses ovariectomized controls (serum cholesterol; 10 mg/kg PO) [%] | other results |
| --- | --- | --- | --- | --- | --- | --- | --- | --- | --- | --- | --- |
| 200 | COc1ccc2c(c1)-c1sc3cc(OC)ccc3c1C2c1ccc(OCCN2CCCCC2)cc1 (stereo not drawn) [Example 1A, 10-[4-[2-(1-Piperidinyl)ethoxy]phenyl]-3,7-dimethoxybenzo[b]indeno[2,1-d]thiophene] | 7.2 | 19.2 | 59.1 | 30.3 | 21.9 | 21.6 | 26.8 | 47.7 | 68.7 | – |
| 100 | c1ccc2c(c1)-c1sc3ccccc3c1C2c1ccc(OCCN2CCCCC2)cc1 (stereo not drawn) [Example 1B, 10-[4-[2-(1-Piperidinyl)ethoxy]phenyl]benzo[b] indeno[2,1-d]thiophene] | 4.8 | 21 | 56.8 | 34.2 | 50.4 | 31.8 | 27.7 | 71.0 | 75.3 | – |
| 0.1 | Oc1ccc2c(c1)-c1sc3cc(O)ccc3c1C2c1ccc(OCCN2CCCCC2)cc1 (stereo not drawn) [Example 2, 10-[4-[2-(1-Piperidinyl)ethoxy]phenyl]-3,7-dihydroxy benzo[b]indeno[2,1-d]thiophene] | 4.8 | 14.6 | 41.4 | 24.0 | 23.4 | 25.6 | 18.3 | 52.5 | 66.3 | – |
| 10 | Cl.Oc1ccc2c3c(sc2c1)-c1ccccc1C3c1ccc(OCCN2CCCCC2)cc1 (stereo not drawn) [Example 6, 10-[4-[2-(1-Piperidinyl)ethoxy]phenyl]-7-hydroxy benzo[b]indeno[2,1-d]thiophene hydrochloride] | 2.9 | 32.5 | 1.3 | 3.7 | 29.8 | 67.4 | 54.0 | 40.6 | 69.9 | Femur BMD % protection (femur; 0.01 mg/kg oral): 40.4%; Femur. % Protection (x-ray image) (femur; 0.01 mg/kg oral): 53.8%; Femur BMD % protection (femur; 0.1 mg/kg oral): 46.6%; Femur. % Protection (x-ray image) (femur; 0.1 mg/kg oral): 39.2%; Femur BMD % protection (femur; 1 mg/kg oral): 66.6%; Femur. % Protection (x-ray image) (femur; 1 mg/kg oral): 73.4%; Femur BMD % protection (femur; 10 mg/kg oral): 64.0%; Femur. % Protection (x-ray image) (femur; 10 mg/kg oral): 48.2% |
